{"source": "patent US20230233546A1", "about": "“METHODS OF TREATING CANCER” (Kymera Therapeutics, Inc., priority 2021, published 2023)", "key": {"[1]": {"test_system": "Acute lymphoblastic leukemia cells (RS4;11)", "assay": "Cell Titer Glo cell viability / growth inhibition in RS4;11", "assay_type": "cell-based", "settings": "for IC50: Homo sapiens, RS4-11, read-out: all cell killing CTG IC50 in RS4;11", "description": "(§1) In vitro cell viability in all cells lines, at optimized growth conditions, was assessed using Cell Titer Glo (Promega) assay performed over 24 h-96 h compound treatments. Compound treatments were carried out using a 11-point dose response, 3-fold serial dilutions stating at a maximum concentration of 1 uM. IC50, IC90 values were calculated by curve fitting using appropriate Nonlinear Regression fit in GraphPad Prism. Cell cycle arrest and/or apoptosis in response to single agent or combination treatment was assessed using flow cytometry analysis on cells treated for 24 h.\nAcute lymphoblastic leukemia cells (RS4;11) were treated for 24 h with Compound A or small molecule inhibitor DS-3032 in a 3-fold serial dilution dose-response at maximum concentration of 1 mM. Growth inhibition was quantified using Cell titer glo (Promega) assay at 24 h continuous treatment."}, "MOLM-13 xenograft": {"test_system": "MOLM-13 xenograft", "assay": "MOLM-13 xenograft model, combination with standard of care", "assay_type": "in vivo"}, "MOLM-13 cell line": {"test_system": "MOLM-13 cell line", "assay": "Combination treatment in MOLM-13 cell line, apoptosis and cell killing", "assay_type": "cell-based", "settings": "combination with venetoclax and midostaurin", "description": "as §1"}, "[2]": {"test_system": "TMD8 p53^MUT ABC-subtype DLBCL xenograft", "assay": "TMD8 DLBCL xenograft model", "assay_type": "in vivo"}, "[3]": {"test_system": "multiple heme indications (AML, T cell lymphomas, mantle cell lymphoma, DLBCL)", "assay": "In vitro activity across heme indications", "assay_type": "cell-based", "settings": "mantle cell lymphoma, and DLBCL most sensitive", "description": "as §1"}, "[4]": {"test_system": "hCD45+ cells in bone marrow and AML blasts", "assay": "AML PDX models, flow cytometry at study end", "assay_type": "in vivo, mouse", "settings": "1 mg/kg, Q3W", "description": "(§2) AML patient cells from leukapheresis were intravenously (IV) injected and established in immunocompromised host strain mice. Surrogate animals were used to determine the level of engraftment targeting a threshold of ˜20% huCD45+ cells in BM. Mice were randomized on study and treatment was initiated. Vehicle and Compound A, 1 mg/kg were administered IV, every three weeks for six weeks (total of two doses of Compound A). At study end, whole blood, bone marrow and spleen were assessed by flow cytometry."}, "[5]": {"test_system": "CTG-2227 AML patient-derived xenograft (PDX)", "assay": "AML patient-derived xenograft model CTG-2227", "assay_type": "in vivo, mouse", "settings": "1 mg/kg, Q3W, IV", "description": "as §2"}, "p53, p21, and PUMA": {"test_system": "p53, p21, and PUMA", "assay": "Protein markers in RS4;11 tumor xenografts, western blot", "assay_type": "in vivo, mouse", "settings": "1 mg/kg", "description": "At various times tumor bearing animals were sacrificed and plasma and tumors collected for pharmacokinetic and pharmacodynamic determinations.\n(§3) Compound A was administered as a single intravenous bolus in RS411 tumor bearing mice at doses of 1, 3, and 10 mg/kg. […] Change in the levels of protein markers in degrader treated xenografts was quantified relative vehicle treated xenografts using western blot assay. Clinical equivalent doses of SMIs had no significant in vivo impact in these xenograft models."}, "p53": {"test_system": "p53", "assay": "p53 stabilization, p53 MSD assay in RS4;11 cells", "assay_type": "cell-based", "settings": "RS4;11, 2 h treatment", "description": "Acute lymphoblastic leukemia cells (RS4;11) were treated for 2 h (4 h, 8 h and 24 h—data not shown) with Compound A or small molecule inhibitor DS-3032 in a 3-fold serial dilution dose-response at maximum concentration of 1 mM. p53 levels were quantified using p53 MSD assay (Total p53 Whole Cell Lysate Kit, MSD, K150DBD-2)."}, "CTG-2700 AML PDX": {"test_system": "CTG-2700 AML PDX", "assay": "AML patient-derived xenograft model CTG-2700", "assay_type": "in vivo, mouse", "settings": "1 mg/kg, Q3W, IV", "description": "as §2"}, "[6]": {"test_system": "OCI-LY10 p53^WT ABC-subtype DLBCL xenograft", "assay": "OCI-LY10 DLBCL xenograft model", "assay_type": "in vivo"}, "RS4;11 tumor": {"test_system": "RS4;11 tumor", "assay": "RS4;11 subcutaneous mouse xenograft, tumor volume", "assay_type": "in vivo", "settings": "single intravenous bolus, 1, 3, and 10 mg/kg; doses as low as 1 mg/kg", "description": "Female mice, 5-8 wks old mice NOD/SCID mice from SPF (Beijing) experimental Animal Science Technology Co., ltd. Animals were received, housed and observed for seven days prior to study initiation. Each mouse were inoculated subcutaneously with RS4;11 tumor cells (1×107) in 0.1 ml of RPMI1640 with 10% FBS for tumor development. Groups and treatments were started when the mean tumor volume reached about 100 mm3 for study. Based on the tumor volume, mice were randomly assigned to respective groups using a computer-generated randomization procedure. Compound A was formulated in 20% HP-β-CD at concentrations up to 0.1 mg/mL and administered intravenously to tumor bearing animals. Tumor size was measured twice to three times weekly in three dimensions using a caliper. The measurement of tumor size were conducted twice weekly with a caliper and recorded. The tumor volume (mm^3) was estimated using the formula: TV=a×b2/2, where “a” and “b” are long and short diameters of a tumor, respectively.\nas §3"}, "CTG-2240 AML PDX": {"test_system": "CTG-2240 AML PDX", "assay": "AML patient-derived xenograft model CTG-2240", "assay_type": "in vivo, mouse", "settings": "1 mg/kg, Q3W, IV", "description": "as §2"}, "[7]": {"test_system": "panel of solid and hematological tumor cell lines", "assay": "Cell growth inhibition across a tumor cell line panel", "assay_type": "cell-based", "description": "as §1"}, "disseminated AML model": {"test_system": "disseminated AML model", "assay": "Disseminated AML xenograft model, survival", "assay_type": "in vivo, mouse", "settings": "weekly administration, compared to vehicle treated animals", "description": "Female mice, 5-8 wks old mice NOD/SCID mice from SPF (Beijing) experimental Animal Science Technology Co., ltd. Animals were received, housed and observed for seven days prior to study initiation. Each mouse will be with tumor cells in 0.1 ml PBS via tail-vein injection. Groups and treatments were started 4 days post-inoculation. Based on the body weight, mice were randomly assigned to respective groups using a computer-generated randomization procedure. Compound A was formulated in 20% HP-β-CD at concentrations up to 0.1 mg/mL and administered intravenously to tumor bearing animals.\nIn this model, Compound A exposures correlated with induction of apoptotic p53 target genes and tumor growth inhibition."}, "[8]": {"target": "T1, C-terminally HiBiT-tagged MDM2 (Homo sapiens, UniProt Q00987)", "T1 construct": "expressed in transfected cells", "T1 sequence (Q00987 whole entry)": "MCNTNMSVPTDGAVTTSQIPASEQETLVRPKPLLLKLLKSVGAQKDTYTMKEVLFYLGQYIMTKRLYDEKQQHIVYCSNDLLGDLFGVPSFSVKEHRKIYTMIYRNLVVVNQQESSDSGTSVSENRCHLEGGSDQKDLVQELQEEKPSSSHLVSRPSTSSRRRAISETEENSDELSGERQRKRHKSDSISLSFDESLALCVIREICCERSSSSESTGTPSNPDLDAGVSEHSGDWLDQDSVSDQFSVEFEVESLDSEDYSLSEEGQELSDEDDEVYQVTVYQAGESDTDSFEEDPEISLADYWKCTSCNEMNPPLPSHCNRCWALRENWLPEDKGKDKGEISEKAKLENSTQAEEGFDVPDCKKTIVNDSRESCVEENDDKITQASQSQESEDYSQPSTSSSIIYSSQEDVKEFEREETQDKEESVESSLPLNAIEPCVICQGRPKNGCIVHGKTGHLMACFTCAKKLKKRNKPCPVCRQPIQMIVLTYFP", "assay": "MDM2 degradation, HiBiT signal (Nano-Glo HiBiT lytic detection) in 293T cells", "assay_type": "cell-based", "description": "293T cells stably expressing C-terminally HiBiT-tagged MDM2 were treated for 4 h with Compound A or small molecule inhibitor DS-3032 in a 3-fold serial dilution dose-response at maximum concentration of 1 mM. Degradation potency was measured as reduction in HiBiT signal, quantified using Nano-Glo® HiBiT lytic detection system (Promega)."}, "[9]": {"test_system": "Acute lymphoblastic leukemia cells (RS4;11)", "assay": "Washout apoptosis assay, Caspase Glo 3/7 in RS4;11", "assay_type": "cell-based", "settings": "RS4;11, 4 h exposure followed by washout, measured at 24 or 48 h post treatment", "description": "For washout assay, cells were treated for 4-24 h at serial dilutions indicated above. At the end of treatment times (4 h, 8 h, 16 h and 24 h) cells were washed twice with complete media, plated in 384-well plates and incubated for 24-72 h. Cells were assessed for viability using Cell Titer Glo (Promega) assay and apoptosis using Caspase Glo 3/7 (Promega) assay at 24 h, 48 h and 72 h post the start of treatment.\nAcute lymphoblastic leukemia cells (RS4;11) were treated for 4 h (8 h, 16 h, 24 h—data not shown) with Compound A or small molecule inhibitor DS-3032 at indicated concentrations. Apoptotic activity was quantified as increase in Caspase activity measured using Caspase Glo® 3/7 assay system (Promega)."}}, "data": [{"smiles": "COc1cc(C(=O)O)ccc1NC(=O)[C@@H]1N[C@@H](CC(C)(C)C)[C@](C#N)(c2ccc(Cl)cc2F)[C@H]1c1cccc(Cl)c1F", "note": "[RG7388]", "values": [{"measurement": "IC50", "setting": "[1]", "value": 220, "unit": "nM"}]}, {"smiles": "Nc1ccn([C@@H]2O[C@H](CO)[C@@H](O)[C@@H]2O)c(=O)n1", "note": "[cytarabine]", "values": [{"measurement": "anti-tumor activity in MOLM-13 xenograft model", "setting": "MOLM-13 xenograft; combination of cytarabine and venetoclax", "value": "no significant anti-tumor activity"}, {"measurement": "anti-tumor activity in MOLM-13 xenograft model", "setting": "MOLM-13 xenograft; cytarabine alone", "value": "no significant anti-tumor activity"}]}, {"smiles": "Cn1c(=O)n(C2CCC(=O)NC2=O)c2ccc(C3CCN(C(=O)[C@H]4CC[C@H](NC(=O)[C@@H]5NC6(CCCCC6)[C@@]6(C(=O)Nc7cc(Cl)ccc76)[C@H]5c5cccc(Cl)c5F)CC4)CC3)cc21", "note": "(stereo partly drawn) [Compound A, (3′R,4'S,5′R)-6″-chloro-4′-(3-chloro-2-fluorophenyl)-N-((1R,4R)-4-(4-(1-(2,6-dioxopiperidin-3-yl)-3-methyl-2-oxo-2,3-dihydro-1H-benzo[d]imidazol-5-yl)piperidine-1-carbonyl)cyclohexyl)-2″-oxodispiro[cyclohexane-1,2′-pyrrolidine-3′,3″-indoline]-5′-carboxamide]", "values": [{"measurement": "induction of apoptosis and cell killing in combination", "setting": "MOLM-13 cell line", "value": "enhances induction of apoptosis and cell killing"}, {"measurement": "activity in TMD8 xenograft model", "setting": "[2]", "value": "not"}, {"measurement": "in vitro activity across heme indications", "setting": "[3]", "value": "active across multiple heme indications"}, {"measurement": "anti-tumor activity in MOLM-13 xenograft model", "setting": "MOLM-13 xenograft; single dose in combination with daily dosing of venetoclax", "value": "sustained tumor regression"}, {"measurement": "hCD45+ cells in bone marrow and AML blasts", "setting": "[4]", "value": "significantly reduces"}, {"measurement": "response in CTG-2227 AML PDX model", "setting": "[5]", "value": "tumor regression"}, {"measurement": "time of peak of protein marker upregulation post-dose", "setting": "p53, p21, and PUMA", "value": 6, "unit": "h"}, {"measurement": "upregulation of protein markers p53, p21, and PUMA in tumor xenografts", "setting": "p53, p21, and PUMA; relative to vehicle treated xenografts", "value": "marked upregulation"}, {"measurement": "stabilization of p53", "setting": "p53", "value": "strong stabilization of p53"}, {"measurement": "response in CTG-2700 AML PDX model", "setting": "CTG-2700 AML PDX", "value": "partial responses"}, {"measurement": "activity in OCI-LY10 xenograft model", "setting": "[6]", "value": "highly active"}, {"measurement": "anti-tumor activity", "setting": "RS4;11 tumor", "value": "sustained tumor regression"}, {"measurement": "response in CTG-2240 AML PDX model", "setting": "CTG-2240 AML PDX", "value": "partial responses"}, {"measurement": "stronger cell growth inhibition, compared to SMIs", "setting": "[7]", "value": "> 200", "unit": "fold"}, {"measurement": "IC50", "setting": "[1]", "value": 0.3, "unit": "nM"}, {"measurement": "cancer cell growth inhibition", "setting": "[1]; RS4;11, 24 h continuous treatment, compared with SMI", "value": "potently inhibits cancer cell growth"}, {"measurement": "survival", "setting": "disseminated AML model", "value": "significantly prolonged the survival"}, {"measurement": "degradation of MDM2", "setting": "[8]; 4 h treatment", "value": "rapid and potent degradation of MDM2"}, {"measurement": "degrades MDM2 at", "setting": "[8]; FIG. 1, HiBiT-tagged MDM2, 4 h treatment", "value": 0.4, "unit": "nM"}, {"measurement": "induction of apoptosis (Caspase activity)", "setting": "[9]", "value": "sufficient to potently induce apoptosis"}]}, {"smiles": "CC(C)(C)C[C@@H]1N[C@@H](C(=O)N[C@H]2CC[C@H](O)CC2)[C@H](c2cccc(Cl)c2F)[C@]12C(=O)Nc1cc(Cl)ccc12", "note": "[SAR405838]", "values": [{"measurement": "IC50", "setting": "[1]", "value": 620, "unit": "nM"}]}, {"smiles": "COc1ncc(-c2nc3c(n2C(C)C)[C@H](c2ccc(Cl)cc2)N(c2cc(Cl)cn(C)c2=O)C3=O)c(OC)n1", "note": "[HDM201]", "values": [{"measurement": "IC50", "setting": "[1]", "value": 163, "unit": "nM"}]}, {"smiles": "CC(C)[C@@H](CS(=O)(=O)C(C)C)N1C(=O)[C@@](C)(CC(=O)O)C[C@H](c2cccc(Cl)c2)[C@H]1c1ccc(Cl)cc1", "note": "[AMG-232]", "values": [{"measurement": "IC50", "setting": "[1]", "value": 280, "unit": "nM"}]}, {"smiles": "CC1(C)CCC2(CC1)N[C@@H](C(=O)N[C@@H]1CC[C@@H](C(N)=O)OC1)[C@H](c1ccnc(Cl)c1F)[C@]21C(=O)Nc2cc(Cl)ccc21", "note": "[DS-3032]", "values": [{"measurement": "IC50", "setting": "[1]", "value": 67, "unit": "nM"}]}]}
